Columns and labels:
Phosphodiesterase 4 = Phosphodiesterase 4 (Rattus norvegicus, UniProt P14270+P14646+P14644+P54748); experiment: Displacement of [3H]rolipram from rat forebrain membrane; assay type: tissue-based, Brain
Mus musculus [1] = experiment: Evaluated for antiinflammatory activity in the TPA induced ear inflammation model at a dose 2 mg/kg (50 ug); assay type: functional
Mus musculus [2] = experiment: Evaluated for antiinflammatory activity in the TPA induced ear inflammation model at a dose 1 mg/kg (25 ug); assay type: functional
Rattus norvegicus = experiment: Tested in vivo for lowest active dose that induced inhibitory effect on gastric emptying in rats; assay type: functional, Stomach
[3] = biological target: 3',5'-cyclic-AMP phosphodiesterase 4B (Homo sapiens, UniProt Q07343); experiment: Inhibitory activity against recombinant phosphodiesterase 4B (PDE4B) of human mononuclear lymphocytes
Sequence of 3',5'-cyclic-AMP phosphodiesterase 4B (Q07343 whole entry): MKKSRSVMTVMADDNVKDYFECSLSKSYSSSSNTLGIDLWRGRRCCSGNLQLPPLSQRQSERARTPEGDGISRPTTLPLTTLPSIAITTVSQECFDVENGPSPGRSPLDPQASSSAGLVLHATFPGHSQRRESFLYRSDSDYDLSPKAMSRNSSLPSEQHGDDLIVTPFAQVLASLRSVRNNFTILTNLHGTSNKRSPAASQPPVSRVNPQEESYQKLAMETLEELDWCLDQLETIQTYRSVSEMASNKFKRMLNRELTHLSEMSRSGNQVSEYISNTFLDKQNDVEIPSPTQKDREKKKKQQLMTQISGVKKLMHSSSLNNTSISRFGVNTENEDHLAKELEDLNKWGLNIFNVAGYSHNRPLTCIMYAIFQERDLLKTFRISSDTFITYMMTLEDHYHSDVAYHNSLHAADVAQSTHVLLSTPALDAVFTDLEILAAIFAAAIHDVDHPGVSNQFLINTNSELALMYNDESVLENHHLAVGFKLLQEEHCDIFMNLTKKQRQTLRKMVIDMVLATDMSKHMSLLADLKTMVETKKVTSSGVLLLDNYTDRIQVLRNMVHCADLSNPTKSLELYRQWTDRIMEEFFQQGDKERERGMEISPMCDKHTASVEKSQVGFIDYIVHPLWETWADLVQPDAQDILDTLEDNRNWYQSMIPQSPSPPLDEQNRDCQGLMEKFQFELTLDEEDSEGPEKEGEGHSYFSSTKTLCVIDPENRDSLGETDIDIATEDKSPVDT

Structure (SMILES) | Ki (Phosphodiesterase 4) | inhibition in vivo at 2 mg/kg (Mus musculus [1]) | inhibition in vivo at 1 mg/kg (Mus musculus [2]) | LAD (Rattus norvegicus) | IC50 [3]
COc1ccc(C(C)Cn2ccnc2O)cc1OCC1CC1 (centres undefined) | 3.5 nM | 74% | 56% | 0.01 mg/kg | 85.8 nM
COc1ccc(C(C)C(C)n2ccnc2O)cc1OC1CCCC1 (centres undefined) | – | – | – | – | 277 nM
CC(Cn1ccnc1NC#N)c1ccc(OC(F)F)c(OCC2CC2)c1 (centres undefined) | – | 52% | 22% | 0.08 mg/kg | –
COc1ccc([C@]2(C#N)CC[C@@H](C(=O)O)CC2)cc1OC1CCCC1 [CILOMILAST] | – | 88% | 69% | 5 mg/kg | –
COc1ccc(C2(Cn3ccnc3O)CC2)cc1OC1CCCC1 | – | 66% | 18% | 0.63 mg/kg | 341 nM
COc1ccc(C(=O)Cn2ccnc2O)cc1OC1CCCC1 | – | – | – | 1.25 mg/kg | 486 nM
COc1ccc(C(C)Cn2ccnc2NC#N)cc1OC1CCCC1 (centres undefined) | – | 84% | 50% | 1.25 mg/kg | –
COc1ccc(C(C)Cn2ccnc2NC#N)cc1OCC1CC1 (centres undefined) | – | 78% | 38% | 1.25 mg/kg | –
COc1ccc([C@@H](C)Cn2cc[nH]/c2=N\C#N)cc1OC1Cc2ccccc2C1 | 63 nM | – | 56% | 2.5 mg/kg | –
Oc1nccn1CC1(c2ccc(OC(F)F)c(OC3CCCC3)c2)CC1 | – | – | – | 0.08 mg/kg | 39.2 nM
COc1ccc(C(C)Cn2ccnc2NC#N)cc1OCCC1Cc2ccccc2C1 (centres undefined) | – | – | – | >1.25 mg/kg | 67.6 nM
COc1ccc(C(C)Cn2ccnc2O)cc1OC1CCOC1 (centres undefined) | – | – | – | 0.02 mg/kg | –
COc1ccc(C(O)Cn2ccnc2O)cc1OC1Cc2ccccc2C1 (centres undefined) | – | – | – | 0.31 mg/kg | 399 nM
COc1ccc(CCn2ccnc2O)cc1OC1CCCC1 | – | 81% | 32% | 0.08 mg/kg | 110 nM
COc1ccc([C@H](C)Cn2ccnc2NC#N)cc1OC1Cc2ccccc2C1 | 220 nM | – | 54% | >5 mg/kg | –
COc1ccc(C(=O)Nc2c(Cl)cncc2Cl)cc1OC1CCCC1 | – | 69% | 43% | 0.5 mg/kg | –
COc1ccc(C(C)Cn2ccnc2NC#N)cc1OC1CCOC1 (centres undefined) | – | 71% | 38% | >1.25 mg/kg | –
COc1ccc(C(C)Cn2ccnc2O)cc1OC1CCCC1 (centres undefined) | – | – | – | 0.01 mg/kg | 24.1 nM
COc1ccc(C(C)(O)Cn2ccnc2O)cc1OC1CCOC1 (centres undefined) | – | – | – | 0.31 mg/kg | > 1000 nM
COc1ccc(C(C)(F)Cn2ccnc2O)cc1OC1CCOC1 (centres undefined) | – | – | – | 0.31 mg/kg | 327 nM
COc1ccc(C(C)Cn2ccnc2O)cc1OC1CC2CCC1C2 (centres undefined) | – | 90% | 34% | 0.01 mg/kg | 21 nM
COc1ccc(C(C)(C)Cn2ccnc2O)cc1OC1CCCC1 | – | – | – | 0.63 mg/kg | 367 nM
COc1ccc(C(C)Cn2ccnc2NC#N)cc1OCCCCCc1ccccc1 (centres undefined) | – | 77% | 36% | >1.25 mg/kg | –
CC(Cn1ccnc1NC#N)c1ccc(OC(F)F)c(OCCCCCc2ccccc2)c1 (centres undefined) | – | 69% | 41% | >1.25 mg/kg | 28.4 nM
CC(Cn1ccnc1O)c1ccc(OC(F)(F)F)c(OC2CCCC2)c1 (centres undefined) | – | – | – | 1.25 mg/kg | > 1000 nM
COc1ccc(C(C)Cn2ccnc2NC#N)cc1OC1Cc2ccccc2C1 (centres undefined) | 180 nM | 82% | 51% | 2.5 mg/kg | –
COc1ccc(C(F)Cn2ccnc2O)cc1OC1Cc2ccccc2C1 (centres undefined) | – | – | – | 0.08 mg/kg | 24.3 nM
COc1ccc(C2CNC(=O)C2)cc1OC1CCCC1 (centres undefined) [ROLIPRAM] | – | 43% | 6% | 0.04 mg/kg | –
CC(Cn1ccnc1O)c1ccc(OC(F)F)c(OC2CCCC2)c1 (centres undefined) | – | – | – | 0.02 mg/kg | < 10 nM
